# Legend:
# Format in all cases: cell-based
# Cav1.2/β3/α2δ = target: T1, Cav1.2/β3/α2δ (Homo sapiens, UniProt Q13936); experiment: Two-electrode voltage clamp of Cav1.2/β3/α2δ expressed in Xenopus oocytes (Ba2+ as charge carrier); settings: for ICa I/I0: relative current at 0 mV
# T1 construct: expressed in transfected cells; host or cells: Xenopus laevis oocytes (cRNA injection, Cav1.2:β3:α2δ 2:1:1 by weight)
# Experimental: (§1) Molecular Biology cRNA encoding Kv7.1 (UniProt: P51787), KCNE1 (UniProt: P15382.1), Nav1.5 (UniProt: Q14524.1), Nav β1 (UniProt: […]), Nav β3 (UniProt: […]), Cav1.2 (GenBank: CAA84346), Cav β3 (Uniprot: P54286), Cav β2 (Uniprot: P54288), and Cav α2δ (Uniprot: P13806) were transcribed using the mMessage mMachine T7 kit (Ambion). 50 ng of cRNA was injected into defolliculated Xenopus laevis oocytes (Ecocyte, Austin, TX): For Kv7.1/KCNE1 channel expression, we injected a 3:1, weight:weight (Kv7.1:KCNE1) cRNA ratio. For Nav1.5 channel expression, we injected a 2:1, weight:weight (Nav1.5:β1) cRNA ratio. For Cav1.2 channel expression, we injected a 2:1:1, weight:weight (Cav1.2:β3:α2δ) cRNA ratio. The exact stoichiometry for channel macromolecular complexes, including α -subunits and auxiliary subunits is not clear for many ion channels. For example, there have been multiple reported stoichiometries for Kv7.1:KCNE1 determined in heterologous expression systems with some groups reporting flexible stoichiometry of 4 Kv7.1: 1–4 KCNE1 and others reporting a fixed stoichiometry of 4 Kv7.1: 2 KCNE1 ([Murray et al., 2016]; [Nakajo et al., 2010]). The ratios of cRNA of α- and auxiliary subunits that we injected in Xenopus laevis oocytes are such that all α-subunits are assumed to be in complex with auxiliary subunits. This allows a more homogenous population of ion channels with auxiliary subunits. One caveat to expressing ion channels as macromolecular complexes is that there are many other auxiliary subunits that could associate with the channel α -subunit that are present in cardiomyocytes and have the potential to alter PUFA-induced effects, but that are not being co-expressed in our experiments. In this work, we are co-expressing some of the auxiliary subunits that have been primarily reported to associate with their respective α -subunits in cardiomyocytes. Following cRNA injection, cells were incubated for 72–96 hr in standard ND96 solution (96 mM NaCl, 2 mM KCl, 1 mM MgCl2, 1.8 mM CaCl2, 5 mM HEPES; pH = 7.5) containing 1 mM pyruvate at 16°C prior to electrophysiological recordings.
# (§2) Xenopus laevis oocytes were recorded in the two-electrode voltage clamp (TEVC) configuration. Recording pipettes were filled with 3 M KCl. The recording chamber was filled with ND96 (96 mM NaCl, 2 mM KCl, 1 mM MgCl2, 1.8 mM CaCl2, 5 mM HEPES; pH 7.5). For Cav1.2/β3/α2δ channel recordings, Xenopus oocytes were injected with 50 nl of 100 mM EGTA and incubated at 10°C for 30 min prior to electrophysiological recordings in order to sequester cytosolic calcium. In addition, Cav1.2/β3/α2δ channel recordings were done in Ca^2+-free solutions, using Ba^2+ as the charge carrier, to prevent calcium-dependent inactivation of Cav1.2/β3/α2δ channels. Calcium-dependent inactivation was not studied in this work, due to the presence of large calcium-activated chloride currents present in Xenopus laevis oocytes. PUFAs were obtained from Cayman Chemical (Ann Arbor, MI.) or synthesized in house (Linköping, Sweden) through methods previously described ([Bohannon et al., 2020]) and kept at −20 °C as 100 mM stock solutions in ethanol. Serial dilutions of the different PUFAs were prepared from stocks to make 0.2 μM, 0.7 μM, 2 μM, 7 μM, and 20 μM concentrations in ND96 solutions (pH = 7.5). PUFAs were perfused into the recording chamber using the Rainin Dynamax Peristaltic Pump (Model RP-1) (Rainin Instrument Co., Oakland, CA. USA).
# (§3) Electrophysiological recordings were obtained using Clampex 10.3 software (Axon, pClamp, Molecular Devices). To measure Kv7.1/KCNE1 currents we apply PUFAs as the membrane potential is stepped every 30 s from −80 mV to 0 mV for 5 s before stepping to −40 mV and back to −80 mV to ensure that the PUFA effects on the current at 0 mV reached steady state. A voltage-step protocol was used to measure the current vs. voltage (I-V) relationship before PUFA application and after the PUFA effects had reached steady state for each concentration of PUFA. […]
# Nav1.5/β1 = target: T2, Nav1.5/β1 (Homo sapiens, UniProt Q14524); experiment: Two-electrode voltage clamp of Nav1.5/β1 expressed in Xenopus oocytes; settings: for INa I/I0: relative current at 0 mV
# T2 construct: Nav1.5 (UniProt: Q14524.1); expressed in transfected cells; host or cells: Xenopus laevis oocytes (cRNA injection, Nav1.5:β1 2:1 by weight)
# Experimental: as §1, §2, §3
# Cav1.2/β2/α2δ = target: T3, Cav1.2/β2/α2δ (Homo sapiens, UniProt Q13936); experiment: Two-electrode voltage clamp of Cav1.2/β2/α2δ expressed in Xenopus oocytes; settings: co-expression with β2 subunit instead of β3
# T3 construct: expressed in transfected cells; host or cells: Xenopus laevis oocytes (cRNA injection; no ratio printed for the β2 combination)
# T3 sequence (Q13936 1-2138 isoform Q13936-20, other chains not shown): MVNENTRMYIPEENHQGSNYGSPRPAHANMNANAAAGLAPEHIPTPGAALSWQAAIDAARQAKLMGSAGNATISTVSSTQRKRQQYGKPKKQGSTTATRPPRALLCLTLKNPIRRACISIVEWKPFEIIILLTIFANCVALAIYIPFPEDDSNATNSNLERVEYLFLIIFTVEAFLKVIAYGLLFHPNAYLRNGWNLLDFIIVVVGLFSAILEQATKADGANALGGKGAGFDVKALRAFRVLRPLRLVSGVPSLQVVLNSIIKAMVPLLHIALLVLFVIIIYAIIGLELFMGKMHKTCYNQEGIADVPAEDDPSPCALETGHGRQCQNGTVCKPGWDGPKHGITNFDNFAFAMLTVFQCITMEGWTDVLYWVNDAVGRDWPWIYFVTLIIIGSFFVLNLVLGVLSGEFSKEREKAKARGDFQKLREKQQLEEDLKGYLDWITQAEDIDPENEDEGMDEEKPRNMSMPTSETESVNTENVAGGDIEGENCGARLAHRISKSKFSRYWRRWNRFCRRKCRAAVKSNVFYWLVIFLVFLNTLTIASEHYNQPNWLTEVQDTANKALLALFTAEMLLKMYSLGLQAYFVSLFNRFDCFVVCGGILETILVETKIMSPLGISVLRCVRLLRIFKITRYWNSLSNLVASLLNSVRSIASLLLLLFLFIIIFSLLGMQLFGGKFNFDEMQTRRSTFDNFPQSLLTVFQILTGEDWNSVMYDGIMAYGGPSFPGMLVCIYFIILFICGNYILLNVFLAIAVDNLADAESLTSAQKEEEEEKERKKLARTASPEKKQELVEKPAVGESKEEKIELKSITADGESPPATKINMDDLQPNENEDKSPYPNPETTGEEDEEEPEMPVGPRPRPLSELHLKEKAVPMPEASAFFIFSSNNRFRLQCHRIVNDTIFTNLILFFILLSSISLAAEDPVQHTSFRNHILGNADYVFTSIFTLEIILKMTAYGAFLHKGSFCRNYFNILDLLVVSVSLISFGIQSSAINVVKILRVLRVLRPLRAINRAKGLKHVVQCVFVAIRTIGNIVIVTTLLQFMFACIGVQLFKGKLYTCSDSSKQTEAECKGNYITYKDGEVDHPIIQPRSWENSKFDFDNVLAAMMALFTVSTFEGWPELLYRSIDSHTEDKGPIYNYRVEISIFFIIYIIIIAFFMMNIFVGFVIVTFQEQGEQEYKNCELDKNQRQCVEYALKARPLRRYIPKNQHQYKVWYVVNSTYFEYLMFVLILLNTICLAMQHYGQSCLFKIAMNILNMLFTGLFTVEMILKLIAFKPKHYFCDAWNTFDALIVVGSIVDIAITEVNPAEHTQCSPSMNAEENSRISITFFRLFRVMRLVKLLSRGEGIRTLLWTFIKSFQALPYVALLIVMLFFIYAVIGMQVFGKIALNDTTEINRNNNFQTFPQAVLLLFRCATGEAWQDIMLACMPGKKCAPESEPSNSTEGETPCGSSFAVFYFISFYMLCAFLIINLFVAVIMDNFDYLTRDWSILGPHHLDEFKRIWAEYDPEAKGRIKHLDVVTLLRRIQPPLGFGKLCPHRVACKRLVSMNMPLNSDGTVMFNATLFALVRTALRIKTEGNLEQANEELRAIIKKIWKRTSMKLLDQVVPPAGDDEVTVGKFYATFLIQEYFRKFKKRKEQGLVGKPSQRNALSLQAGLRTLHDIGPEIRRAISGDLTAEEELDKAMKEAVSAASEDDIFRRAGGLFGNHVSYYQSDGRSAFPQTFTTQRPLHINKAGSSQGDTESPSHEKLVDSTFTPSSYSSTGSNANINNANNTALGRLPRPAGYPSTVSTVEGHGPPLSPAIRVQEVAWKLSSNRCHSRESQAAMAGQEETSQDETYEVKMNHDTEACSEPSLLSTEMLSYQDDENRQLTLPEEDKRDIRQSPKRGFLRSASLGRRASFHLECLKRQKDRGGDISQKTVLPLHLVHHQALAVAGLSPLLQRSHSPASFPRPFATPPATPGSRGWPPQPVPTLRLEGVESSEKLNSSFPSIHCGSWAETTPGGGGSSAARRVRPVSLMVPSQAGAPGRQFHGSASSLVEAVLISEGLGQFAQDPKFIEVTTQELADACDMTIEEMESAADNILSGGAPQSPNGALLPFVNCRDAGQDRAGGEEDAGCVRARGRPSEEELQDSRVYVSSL
# T3 sequence (P13806 27-960 partner, other chains not shown): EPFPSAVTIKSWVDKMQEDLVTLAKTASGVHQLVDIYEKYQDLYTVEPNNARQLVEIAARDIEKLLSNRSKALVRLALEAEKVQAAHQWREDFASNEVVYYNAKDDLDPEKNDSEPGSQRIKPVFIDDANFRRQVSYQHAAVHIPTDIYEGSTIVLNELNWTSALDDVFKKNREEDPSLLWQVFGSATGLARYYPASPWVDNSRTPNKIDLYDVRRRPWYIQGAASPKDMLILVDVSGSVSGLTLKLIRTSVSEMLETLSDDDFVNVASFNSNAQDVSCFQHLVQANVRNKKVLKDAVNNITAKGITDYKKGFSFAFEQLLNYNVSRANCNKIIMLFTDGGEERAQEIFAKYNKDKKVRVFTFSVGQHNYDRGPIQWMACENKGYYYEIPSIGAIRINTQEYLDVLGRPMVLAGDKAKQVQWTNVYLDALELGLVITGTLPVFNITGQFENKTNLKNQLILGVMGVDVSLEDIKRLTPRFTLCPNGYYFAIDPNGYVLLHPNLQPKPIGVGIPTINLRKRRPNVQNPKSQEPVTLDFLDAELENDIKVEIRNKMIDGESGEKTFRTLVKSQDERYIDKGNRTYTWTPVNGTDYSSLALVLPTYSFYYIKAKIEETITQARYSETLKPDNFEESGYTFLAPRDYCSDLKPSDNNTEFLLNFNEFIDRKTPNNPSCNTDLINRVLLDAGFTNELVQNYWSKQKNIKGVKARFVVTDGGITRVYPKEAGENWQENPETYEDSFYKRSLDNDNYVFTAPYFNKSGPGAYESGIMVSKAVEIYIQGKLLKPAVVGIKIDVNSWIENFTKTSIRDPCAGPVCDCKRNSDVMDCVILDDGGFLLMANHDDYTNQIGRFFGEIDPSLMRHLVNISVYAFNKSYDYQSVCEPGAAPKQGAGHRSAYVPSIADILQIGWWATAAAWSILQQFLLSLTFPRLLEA
# T3 sequence (P13806 961-1106 partner, other chains not shown): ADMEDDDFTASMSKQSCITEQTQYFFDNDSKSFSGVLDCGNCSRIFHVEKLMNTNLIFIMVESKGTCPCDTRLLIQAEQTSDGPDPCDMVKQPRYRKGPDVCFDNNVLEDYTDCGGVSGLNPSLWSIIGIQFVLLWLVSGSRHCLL
# Experimental: Molecular Biology cRNA encoding Kv7.1 (UniProt: P51787), KCNE1 (UniProt: P15382.1), Nav1.5 (UniProt: Q14524.1), Nav β1 (UniProt: […]), Nav β3 (UniProt: […]), Cav1.2 (GenBank: CAA84346), Cav β3 (Uniprot: P54286), Cav β2 (Uniprot: P54288), and Cav α2δ (Uniprot: P13806) were transcribed using the mMessage mMachine T7 kit (Ambion). 50 ng of cRNA was injected into defolliculated Xenopus laevis oocytes (Ecocyte, Austin, TX): For Kv7.1/KCNE1 channel expression, we injected a 3:1, weight:weight (Kv7.1:KCNE1) cRNA ratio. For Nav1.5 channel expression, we injected a 2:1, weight:weight (Nav1.5:β1) cRNA ratio. For Cav1.2 channel expression, we injected a 2:1:1, weight:weight (Cav1.2:β3:α2δ) cRNA ratio. The exact stoichiometry for channel macromolecular complexes, including α -subunits and auxiliary subunits is not clear for many ion channels. For example, there have been multiple reported stoichiometries for Kv7.1:KCNE1 determined in heterologous expression systems with some groups reporting flexible stoichiometry of 4 Kv7.1: 1–4 KCNE1 and others reporting a fixed stoichiometry of 4 Kv7.1: 2 KCNE1 ([Murray et al., 2016]; [Nakajo et al., 2010]). […]
# Xenopus laevis oocytes were recorded in the two-electrode voltage clamp (TEVC) configuration. […]
# T1 sequence (Q13936 1-2138 isoform Q13936-20): as the sequence (Q13936 1-2138 isoform Q13936-20, other chains not shown) above
# T1 sequence (P54286 whole entry partner): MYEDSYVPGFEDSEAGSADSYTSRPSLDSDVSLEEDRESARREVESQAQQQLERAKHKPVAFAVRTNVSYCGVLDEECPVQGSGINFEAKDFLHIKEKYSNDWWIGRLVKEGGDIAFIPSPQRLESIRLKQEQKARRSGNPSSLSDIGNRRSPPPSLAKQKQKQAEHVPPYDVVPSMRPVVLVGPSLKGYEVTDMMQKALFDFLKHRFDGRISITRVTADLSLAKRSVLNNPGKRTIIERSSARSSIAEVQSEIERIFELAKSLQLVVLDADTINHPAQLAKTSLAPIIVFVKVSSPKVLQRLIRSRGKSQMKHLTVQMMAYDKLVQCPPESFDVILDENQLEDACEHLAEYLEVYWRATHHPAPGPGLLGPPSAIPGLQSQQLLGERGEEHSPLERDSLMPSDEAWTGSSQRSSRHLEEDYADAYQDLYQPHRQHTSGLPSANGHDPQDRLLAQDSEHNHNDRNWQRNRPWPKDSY
# T1 sequence (P13806 27-960 partner): as the sequence (P13806 27-960 partner, other chains not shown) above
# T1 sequence (P13806 961-1106 partner): as the sequence (P13806 961-1106 partner, other chains not shown) above
SMILES,Gmax/Gmax0 (Cav1.2/β3/α2δ; 0.2 μM),ΔV0.5 (voltage dependence of inactivation) (Cav1.2/β3/α2δ; 0.2 μM),ICa I/I0 (Cav1.2/β3/α2δ; 0.2 μM),Gmax/Gmax0 (Cav1.2/β3/α2δ; 0.7 μM),ΔV0.5 (voltage dependence of inactivation) (Cav1.2/β3/α2δ; 0.7 μM),ICa I/I0 (Cav1.2/β3/α2δ; 0.7 μM),Gmax/Gmax0 (Cav1.2/β3/α2δ; 2 μM),ΔV0.5 (voltage dependence of inactivation) (Cav1.2/β3/α2δ; 2 μM),ICa I/I0 (Cav1.2/β3/α2δ; 2 μM),Gmax/Gmax0 (Cav1.2/β3/α2δ; 7 μM),ΔV0.5 (voltage dependence of inactivation) (Cav1.2/β3/α2δ; 7 μM),Gmax/Gmax0 (Cav1.2/β3/α2δ; 20 μM),ΔV0.5 (voltage dependence of inactivation) (Cav1.2/β3/α2δ; 20 μM),ICa I/I0 (Cav1.2/β3/α2δ; 20 μM),Gmax/Gmax0 (Nav1.5/β1; 0.2 μM),ΔV0.5 (voltage dependence of inactivation) (Nav1.5/β1; 0.2 μM),INa I/I0 (Nav1.5/β1; 0.2 μM),Gmax/Gmax0 (Nav1.5/β1; 0.7 μM),ΔV0.5 (voltage dependence of inactivation) (Nav1.5/β1; 0.7 μM),INa I/I0 (Nav1.5/β1; 0.7 μM),other results
CCCCC/C=C\C/C=C\CCCCCCCC(=O)NCC(=O)O [Lin-glycine],1.1 ± 0.03,0.1 ± 1.7 mV,0.9 ± 0.1,1.1 ± 0.04,-0.7 ± 1.8 mV,0.9 ± 0.1,1.2 ± 0.1,-2.9 ± 1.4 mV,0.9 ± 0.1,1.0 ± 0.1,−3.0 ± 1.6 mV,1.0 ± 0.1,-3.7 ± 1.5 mV,0.7 ± 0.1,1.0 ± 0.03,-0.2 ± 0.06 mV,1.0 ± 0.03,1.0 ± 0.05,-1.2 ± 0.3 mV,1.0 ± 0.04,"ΔV0.5 (voltage dependence of inactivation) (Cav1.2/β3/α2δ; 7 μM, listed as lin-glycine): -3.0 ± 1.6 mV; ICa I/I0 (Cav1.2/β3/α2δ; 7 μM, listed as lin-glycine): 0.8 ± 0.1; Gmax/Gmax0 (Nav1.5/β1; 2 μM): 0.9 ± 0.06; ΔV0.5 (voltage dependence of inactivation) (Nav1.5/β1; 2 μM): -4.3 ± 0.8 mV; INa I/I0 (Nav1.5/β1; 2 μM): 0.9 ± 0.1; Gmax/Gmax0 (Nav1.5/β1; 7 μM): 0.5 ± 0.1; ΔV0.5 (voltage dependence of inactivation) (Nav1.5/β1; 7 μM): −15.2 ± 2.8 mV; ΔV0.5 (voltage dependence of inactivation) (Nav1.5/β1; 7 μM, listed as lin-glycine): -15.2 ± 2.8 mV; INa I/I0 (Nav1.5/β1; 7 μM): 0.5 ± 0.1 (p=0.02); INa I/I0 (Nav1.5/β1; 7 μM, listed as lin-glycine): 0.5 ± 0.1; Gmax/Gmax0 (Nav1.5/β1; 20 μM): 0.2 ± 0.02; ΔV0.5 (voltage dependence of inactivation) (Nav1.5/β1; 20 μM): -21.7 ± 1.2 mV; INa I/I0 (Nav1.5/β1; 20 μM): 0.3 ± 0.02; response of Cav1.2/β2/α2δ compared with Cav1.2/β3/α2δ (Cav1.2/β2/α2δ): no differences between Cav1.2/β3/α2δ and Cav1.2/β2/α2δ"
"CCCCC/C=C\C/C=C\CCCCCCCC(=O)NCCS(=O)(=O)O [Lin-taurine, Linoleoyl taurine]",1.0 ± 0.02,0.6 ± 0.5 mV,1.0 ± 0.02,0.9 ± 0.02,0.9 ± 0.9 mV,0.9 ± 0.1,0.7 ± 0.05,-0.3 ± 1.8 mV,0.7 ± 0.1,0.6 ± 0.05,−1.9 ± 2.5 mV,0.5 ± 0.04,-1.2 ± 4.4 mV,0.5 ± 0.1,1.0 ± 0.01,-0.3 ± 0.1 mV,1.0 ± 0.01,1.0 ± 0.01,-2.2 ± 0.7 mV,1.0 ± 0.05,"ΔV0.5 (voltage dependence of inactivation) (Cav1.2/β3/α2δ; 7 μM, listed as lin-taurine): -1.9 ± 2.5 mV; ICa I/I0 (Cav1.2/β3/α2δ; 7 μM): 0.6 ± 0.1 (p=0.01); ICa I/I0 (Cav1.2/β3/α2δ; 7 μM, listed as lin-taurine): 0.6 ± 0.1; shift of the voltage dependence of activation (Cav1.2/β3/α2δ; 0.2-20 μM): without shifting the voltage-dependence of Cav1.2/β3/α2δ activation; Gmax/Gmax0 (Nav1.5/β1; 2 μM): 0.9 ± 0.05; ΔV0.5 (voltage dependence of inactivation) (Nav1.5/β1; 2 μM): -8.8 ± 1.7 mV; INa I/I0 (Nav1.5/β1; 2 μM): 0.6 ± 0.07; Gmax/Gmax0 (Nav1.5/β1; 7 μM): 0.5 ± 0.07; ΔV0.5 (voltage dependence of inactivation) (Nav1.5/β1; 7 μM): −23.5 ± 1.9 mV; ΔV0.5 (voltage dependence of inactivation) (Nav1.5/β1; 7 μM, listed as lin-taurine): -23.5 ± 1.9 mV; INa I/I0 (Nav1.5/β1; 7 μM): 0.1 ± 0.02 (p=0.0001); INa I/I0 (Nav1.5/β1; 7 μM, listed as lin-taurine): 0.1 ± 0.02; Gmax/Gmax0 (Nav1.5/β1; 20 μM): 0.3 ± 0.04; ΔV0.5 (voltage dependence of inactivation) (Nav1.5/β1; 20 μM): -34.9 ± 1.5 mV; INa I/I0 (Nav1.5/β1; 20 μM): 0.1 ± 0.01; shift of the voltage dependence of activation (Nav1.5/β1; 0.2-20 μM): no shift in the voltage dependence of activation; response of Cav1.2/β2/α2δ compared with Cav1.2/β3/α2δ (Cav1.2/β2/α2δ): no differences between Cav1.2/β3/α2δ and Cav1.2/β2/α2δ"
